# Patent US12599596B2, “Anti-tumor pharmaceutical composition based on immune checkpoint blockade and use thereof” (Shanghai Hui Tian Jin Ze Biotech Co., Ltd., priority 2023, dated 2026)
# Experiments:
# [1] = tested on: MC38 colon cancer cells; experiment: MC38 subcutaneous tumor model, curcumin-administrated groups, Embodiment 4; type: in vivo, C57BL/6 mice; conditions: CBD 100 mg/kg, curcumin 50 mg/kg, piperine 1 mg/kg, vitamin E 50 mg/kg, thymosin 2 mg/kg; vs control
# Procedure: MC38 colon cancer cells were inoculated into 6-week-old female C57BL/6 mice (1×10^6 cells/mouse) to establish a subcutaneous tumor model. After the tumor volume reached 50 mm^3, the mice in the artemisinin-administered groups were grouped and administered with the following pharmaceutical combinations: (1) control group, (2) CBD (100 mg/kg)+vitamin E(α-tocopherol) (50 mg/kg)+thymosin (2 mg/kg) group, and (3) CBD (100 mg/kg)+artemisinin (20 mg/kg)+vitamin E(α-tocopherol) (50 mg/kg)+thymosin (2 mg/kg). The mice in curcumin-administrated group were grouped and administered with the following pharmaceutical combinations: (1) control group, (2) CBD (100 mg/kg) group, (3) curcumin (50 mg/kg)+piperine (1 mg/kg) group, (4) CBD (100 mg/kg)+curcumin (50 mg/kg)+piperine group (1 mg/kg), and (5) CBD (100 mg/kg)+curcumin (50 mg/kg)+piperine (1 mg/kg)+vitamin E(α-tocopherol) (50 mg/kg)+thymosin (2 mg/kg).
# The tumor growth volume of the mice was monitored once every 2 days. The tumor volume was calculated as follows: tumor volume (mm^3)=0.5×(length)x(width)^2. The mice were sacrificed 14 days after drug administration, and the tumors were dissected. […]
# [2] = tested on: PD-L1 in H1975 lung cancer cells; experiment: PD-L1 expression by Western blotting; type: cell-based; conditions: concentration-dependent at 5, 10, 20 μM, 24 h
# Procedure: (§1) Different types of well-grown tumor cells (RKO colorectal cancer cells, H1975 lung cancer cells, and A549 lung cancer cells) with a density of 80% or more were respectively spread on a 6-well plate at a density of 5×10^4 cells/well, the volume of the suspension in each well was 2 mL, and the cells were subsequently placed in an incubator at 37° C. for culture. […] After the cells were continuously cultured for 24 h, the culture was terminated, and subsequent detection was conducted.
# (§2) After the culture was terminated, the cells were collected and washed with cold PBS 2 times. After the PBS residue was removed, a proper amount of cell lysate was added for cracking, and the cells were incubated on ice for 15 min and then centrifuged on a 4° C. centrifuge at 12,000 rpm for 15 min. The supernatant was carefully aspirated, the protein concentration was measured via the BCA method, a corresponding amount of loading buffer was added, the cells were evenly shaken and incubated in a 100° C. water bath for 10 min, and finally, the sample was subjected to a protein immunoblotting experiment.
# [3] = tested on: PD-L1 in RKO colorectal cancer cells; experiment: PD-L1 expression by Western blotting; type: cell-based; conditions: concentration-dependent at 5, 10, 20 μM, 24 h
# Procedure: as §1, §2
# [4] = tested on: PD-L1 in A549 lung cancer cells; experiment: PD-L1 expression by Western blotting; type: cell-based; conditions: concentration-dependent at 5, 10, 20 μM, 24 h
# Procedure: as §1, §2
# [5] = tested on: MC38 colorectal cancer cells; experiment: MC38 subcutaneous tumor model in C57BL/6 mice, Embodiment 2; type: in vivo; conditions: for Tumor volume: CBD 100 mg/kg, PAR 10 mg/kg, vitamin E 50 mg/kg, thymosin 2 mg/kg
# Procedure: • 1. MC38 colorectal cancer cells were inoculated into 6-week-old female C57BL/6 mice (1×10^6 cells/mouse) to establish a subcutaneous tumor model. After the tumor volume reached 50 mm^3, the mice were grouped and administered according to the following pharmaceutical combinations: (1) control group (no administration), (2) anti-PD-1 ([…]/time) group, (3) anti-CTLA4 ([…]/time) group, (4) CBD (100 mg/kg) group, (5) CBD (100 mg/kg)+anti-CTLA4 ([…]/time) group, (6) PAR (10 mg/kg) group, (7) PAR (10 mg/kg)+anti-CTLA4 ([…]) group, (8) CBD (100 mg/kg)+PAR (10 mg/kg) group, (9) vitamin E(a-tocopherol) (50 mg/kg)+thymosin (2 mg/kg) group, (10) CBD (100 mg/kg)+vitamin E(α-tocopherol) (50 mg/kg)+thymosin (2 mg/kg) group, (11) PAR (10 mg/kg)+vitamin E(α-tocopherol) (50 mg/kg)+thymosin (2 mg/kg), (12) PAR (10 mg/kg)+CBD (100 mg/kg)+vitamin E(α-tocopherol) (50 mg/kg)+thymosin (2 mg/kg) group, (13) CBD (100 mg/kg)+vitamin E(α-tocopherol) (50 mg/kg)+thymosin (2 mg/kg)+anti-CTLA4 ([…]/time) group, (14) PAR (10 mg/kg)+vitamin E(α-tocopherol) (50 mg/kg)+thymosin (2 mg/kg)+anti-CTLA4 ([…]) group, and (15) CBD (100 mg/kg)+PAR (10 mg/kg)+vitamin E(α-tocopherol) (50 mg/kg)+thymosin (2 mg/kg)+anti-CTLA4 ([…]/time) group. The tumor weight and volume, and body weight of the mice were monitored once every 2 days. The tumor volume was calculated as follows: tumor volume (mm^3)=0.5×(length)x(width)^2. The mice were sacrificed 14 days after drug administration, and the tumors were dissected.
# The dissolving mode of the pharmaceutical composition was as follows: the pharmaceutical composition was dissolved in 10% DMSO+corn oil, the mice were gavaged with the pharmaceutical composition at 100 pl/mouse, and the mice in the control group were injected with the same volume of the solvent. • 2. MC38 colorectal cancer cells were inoculated into 6-week-old female nude mice (1×10^6 cells/mouse) to establish a subcutaneous tumor model. After the tumor volume reached 50 mm^3, the mice were grouped and administered according to the following pharmaceutical combinations: (1) control group, (2) CBD (100 mg/kg)+vitamin E(α-tocopherol) (50 mg/kg)+thymosin (2 mg/kg) group, (3) PAR (10 mg/kg)+vitamin E(α-tocopherol) (50 mg/kg)+thymosin (2 mg/kg) group, and (4) PAR (10 mg/kg)+CBD (100 mg/kg)+vitamin E(α-tocopherol) (50 mg/kg)+thymosin (2 mg/kg) group. The tumor weight and volume, and the body weight of the mice were monitored once every 2 days. The tumor volume was calculated as follows: tumor volume (mm^3)=0.5×(length)x(width)^2. The mice were sacrificed 14 days after drug administration, and the tumors were dissected. (II) Experimental Results 1.
compound,measurement,setting,value
"C=C(C)[C@@H]1CCC(C)=C[C@H]1c1c(O)cc(CCCCC)cc1O [CBD, cannabidiol]",tumor growth / anti-tumor effect in words,[1],inhibited to a certain degree
same,expression of PD-L1 (Western blotting),[2],significantly inhibited the expression of PD-L1
same,expression of PD-L1 (Western blotting),[3],significantly inhibited the expression of PD-L1
same,expression of PD-L1 (Western blotting),[4],significantly inhibited the expression of PD-L1
same,Tumor volume,[5]; Day 0,0 mm^3
same,Tumor volume,[5]; Day 2,54.99 mm^3
same,Tumor volume,[5]; Day 4,70.96 mm^3
same,Tumor volume,[5]; Day 6,87.63 mm^3
same,Tumor volume,[5]; Day 8,178.79 mm^3
same,Tumor volume,[5]; Day 10,279.84 mm^3
same,Tumor volume,[5]; Day 12,399.70 mm^3
same,Tumor volume,[5]; Day 14,493.09 mm^3
same,Tumor volume,[5]; Day 16,600.09 mm^3
same,therapeutic / tumor inhibition effect in words,"[5]; normal mice, Embodiment 2, comparison between groups",equivalent therapeutic effects
